# Source: doi:10.1101/2025.10.22.684062 (bioRxiv, 2025)
# Peptide text beside a SMILES is read from it.
# Legend:
# B16-F10 melanoma tumors = test: B16-F10 syngeneic mouse tumor model; format: in vivo, C57BL/6 mice; settings: CST 10 mg/kg i.p. three times per week, tumor-bearing mice, n=9
# Method: Age-matched male and female C57BL/6 mice (7–9 weeks, n = 9) were subcutaneously injected with 5 × 10^4 B16-F10 cells in 100 μL PBS. […] Tumor dimensions were measured with calipers, and volume was calculated using the formula V = (length × width^2)/2. Mice were euthanized 22 days post-inoculation. All procedures were approved by the IACUC of UCSD and the VA San Diego Healthcare System and conformed to NIH guidelines.
# Tumors were fixed, paraffin-embedded, and sectioned (5 μm). Hematoxylin and eosin staining was performed at the La Jolla Institute for Immunology. Immunohistochemistry was carried out using the Super Sensitive™ M Polymer-HRP Kit (Biogenex). After deparaffinization, antigen retrieval was performed using Histo VT (Nacalai) at 90°C for 20 min. Sections were incubated overnight at 4°C with anti–Ki-67 (Abcam) or anti-CST (gift from Angelo Corti) at 1:100 dilution. Detection was performed with DAB and counterstained with hematoxylin. Slides were dehydrated and mounted in DPX. […]
# Apoptotic nuclei were detected in tumor sections using the CF®594 TUNEL Assay Kit (Biotium). […] Fluorescence images were obtained using a Keyence microscope.
# Tumor lysates were prepared in RIPA buffer containing protease inhibitors (Thermo Fisher). […] HRP-conjugated secondary antibodies (Cell Signaling Technology) were used, and signals were detected by chemiluminescence. […]
# [1] = In vivo plasma pharmacokinetics; settings: ip, male C57BL/6 mouse, 5mg/kg intraperitoneal, LC-MS/MS
# Method: Blood samples (100 μl) were obtained at 0, 0.25, 0.5, 1, 2, 4, 8, and 24 hours via tail vein bleeds.
# [2] = system: Vemurafenib-sensitive A375 cell line; test: Cell viability assay, Vemurafenib-sensitive (parental) A375 cells; format: cell-based; settings: Homo sapiens, A-375
# Method: (§1) Viability was determined using the CCK-8 reagent (APExBIO). Absorbance was measured at 450 nm using a Varioskan LUX reader.
# (§2) Vemurafenib-resistant A375 cells were generated following established protocol. Parental cells were treated with 100 nM Vemurafenib for 2 weeks, followed by stepwise doubling of drug concentration every 2 weeks up to 3.2 μM. Surviving cells in maintenance culture containing 2 μM drug was used for downstream studies.
# [3] = system: Vemurafenib-resistant A375 cell line; test: Cell viability assay, Vemurafenib-resistant A375 cells; format: cell-based, human
# Method: as §1, §2
Structure (SMILES),body weight and liver histology (B16-F10 melanoma tumors),half-life ([1]; read-out: t1/2 (half-life) (converted)) [h],"Cmax ([1]; tail vein bleeds 0-24 hours, read-out: Cmax (maximum concentration)) [ng/mL]",IC50 [2] [nM],"IC50 ([3]; Homo sapiens, vemurafenib-resistant A-375, Vemurafenib-resistant A375 cells) [nM]","fold increase of IC50, resistant versus parental A375 cells ([3]; resistant vs parental A375) [fold]"
"CSCC[C@H](NC(=O)[C@H](CO)NC(=O)[C@@H](N)CO)C(=O)N[C@@H](CCCCN)C(=O)N[C@@H](CC(C)C)C(=O)N[C@@H](CO)C(=O)N[C@@H](Cc1ccccc1)C(=O)N[C@@H](CCCNC(=N)N)C(=O)N[C@@H](C)C(=O)N[C@@H](CCCNC(=N)N)C(=O)N[C@@H](C)C(=O)N[C@@H](Cc1ccc(O)cc1)C(=O)NCC(=O)N[C@@H](Cc1ccccc1)C(=O)N[C@@H](CCCNC(=N)N)C(=O)NCC(=O)N1CCC[C@H]1C(=O)NCC(=O)N1CCC[C@H]1C(=O)N[C@@H](CCC(N)=O)C(=O)N[C@@H](CC(C)C)C(=O)O [CST, Catestatin] (H-SSMKLSFRARAYGFRGPGPQL-OH)",No major changes in body weight or liver histology,1.38,148,,,
CCCS(=O)(=O)Nc1ccc(F)c(C(=O)c2c[nH]c3ncc(-c4ccc(Cl)cc4)cc23)c1F [Vemurafenib],,,,229,1430,> 6
